{"source": "patent US20240132431A1", "about": "“METHOD FOR ALKYLATING ACIDIC FUNCTIONAL GROUP” (Chugai Seiyaku Kabushiki Kaisha, priority 2021, published 2024)", "target": "T1, Bcl-2 protein (Recombinant Human Bcl-2 Protein) (Homo sapiens, UniProt P10415)", "T1 construct": "purchased Novus NBP2-34889", "T1 sequence (P10415 whole entry)": "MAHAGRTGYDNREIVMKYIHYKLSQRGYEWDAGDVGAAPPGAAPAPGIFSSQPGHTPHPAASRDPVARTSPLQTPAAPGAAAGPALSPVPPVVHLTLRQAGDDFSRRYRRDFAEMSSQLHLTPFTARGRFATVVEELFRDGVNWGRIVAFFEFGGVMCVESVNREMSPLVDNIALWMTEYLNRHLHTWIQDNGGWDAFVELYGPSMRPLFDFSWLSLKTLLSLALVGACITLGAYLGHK", "assay": "Binding evaluation of mixture library compounds to Bcl-2 using AS-MS (affinity selection mass spectrometry)", "settings": "for ASMS ratio (%) n = 1 / ASMS ratio (%) n = 2: ASMS Ratio(%)=(A−C)/B×100; for ASMS ratio (%) n = 1: replicate n = 1; for ASMS ratio (%) n = 2: replicate n = 2", "how_it_was_run": "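Pooled library of ~1200 compounds ([…] each, final) incubated with recombinant human Bcl-2 (20 μM final) in Tris-HCl pH 7.4, NaCl, Tween-20, DTT buffer, dark, 23° C., 1 h. Bound fraction recovered by SEC spin column, organic extraction, reversed-phase LC/MS. ASMS Ratio (%) = (A−C)/B×100 versus protein-free standard and SEC blank.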", "key": {"[1]": {"settings": "AS-MS, mixture of 1200 compounds, Bcl-2"}, "[2]": {"settings": "AS-MS on the mixture of 1200 library compounds"}}, "data": [{"compound": "CCOc1cncc(-c2csc(CN3CCN(c4ccc(C(=O)NS(=O)(=O)CCC(F)(F)F)cc4)CC3)c2)c1", "note": "[B2N068-01]", "values": [{"measurement": "ASMS ratio (%)", "setting": "n = 1", "result": 0.0, "unit": "%"}, {"measurement": "ASMS ratio (%)", "setting": "n = 2", "result": 0.5, "unit": "%"}]}, {"compound": "CCOc1cncc(C#Cc2cc(C(=O)N3CCN(c4ccc(C(=O)NCC56CC7CC(CC(C7)C5)C6)cc4)CC3)cc(C(F)(F)F)c2)c1", "note": "[B1A042-01, N-(1-Adamantylmethyl)-4-[4-[3-[2-(5-ethoxypyridin-3-yl)ethynyl]-5-(trifluoromethyl)benzoyl]piperazin-1-yl]benzamide]", "values": [{"measurement": "ASMS ratio (%) n = 1", "setting": "[1]", "result": 12.5, "unit": "%"}, {"measurement": "ASMS ratio (%) n = 2", "setting": "[1]", "result": "−8.5", "unit": "%"}]}, {"compound": "CCOc1cccc(-c2cc(CN3CCN(c4ccc(C(=O)N(CC)CC)nn4)CC3)cc(OC(F)(F)F)c2)c1", "note": "[B4J089-01, 6-[4-[[3-(3-Ethoxyphenyl)-5-(trifluoromethoxy)phenyl]methyl]piperazin-1-yl]-N,N-diethylpyridazine-3-carboxamide]", "values": [{"measurement": "ASMS ratio (%) n = 1", "setting": "AS-MS, mixture library, Bcl-2", "result": 3.9, "unit": "%"}, {"measurement": "ASMS ratio (%) n = 2", "setting": "AS-MS, mixture library, Bcl-2", "result": 0.4, "unit": "%"}]}, {"compound": "CCOc1cncc(-c2ccc(CN3CCN(c4ccc(C(=O)NS(=O)(=O)CC56CC7CC(CC(C7)C5)C6)nn4)CC3)c(OC)c2)c1", "note": "[B2A080-01, N-(1-Adamantylmethylsulfonyl)-6-[4-[[4-(5-ethoxypyridin-3-yl)-2-methoxyphenyl]methyl]piperazin-1-yl]pyridazine-3-carboxamide]", "values": [{"measurement": "ASMS ratio (%) n = 1", "setting": "AS-MS, mixture library, Bcl-2", "result": 0.0, "unit": "%"}, {"measurement": "ASMS ratio (%) n = 2", "setting": "AS-MS, mixture library, Bcl-2", "result": 0.0, "unit": "%"}]}, {"compound": "CCOc1cncc(-c2ccc(CN3CCN(c4ccc(C(=O)NS(=O)(=O)CC56CC7CC(CC(C7)C5)C6)cc4)CC3)cc2C)c1", "note": "[B2A048-01, N-(1-Adamantylmethylsulfonyl)-4-[4-[[4-(5-ethoxypyridin-3-yl)-3-methylphenyl]methyl]piperazin-1-yl]benzamide]", "values": [{"measurement": "ASMS ratio (%) n = 1", "setting": "AS-MS, mixture library, Bcl-2", "result": 18.2, "unit": "%"}, {"measurement": "ASMS ratio (%) n = 2", "setting": "AS-MS, mixture library, Bcl-2", "result": 2.1, "unit": "%"}]}, {"compound": "CCOc1cncc(-c2cc(C(=O)N3CCN(c4ccc(C(=O)Nc5ccc(OC)cc5)nn4)CC3)cc(C(C)(C)C)c2)c1", "note": "[B1O016-01, 6-[4-[3-tert-Butyl-5-(5-ethoxypyridin-3-yl)benzoyl]piperazin-1-yl]-N-(4-methoxyphenyl)pyridazine-3-carboxamide]", "values": [{"measurement": "ASMS ratio (%) n = 1", "setting": "[2]", "result": 6.6, "unit": "%"}, {"measurement": "ASMS ratio (%) n = 2", "setting": "[2]", "result": 0.7, "unit": "%"}]}, {"compound": "CCOc1cccc(-c2cnn(-c3cc(C(=O)N4CCN(c5ccc(C(=O)NS(=O)(=O)C(C)(C)C)cc5)CC4)cc(C(F)(F)F)c3)c2)c1", "note": "[B2L043-01, N-tert-Butylsulfonyl-4-[4-[3-[4-(3-ethoxyphenyl)pyrazol-1-yl]-5-(trifluoromethyl)benzoyl]piperazin-1-yl]benzamide]", "values": [{"measurement": "ASMS ratio (%)", "setting": "n = 1", "result": 0.0, "unit": "%"}, {"measurement": "ASMS ratio (%)", "setting": "n = 2", "result": 0.0, "unit": "%"}]}, {"compound": "CCOc1cncc(-c2ccc(CN3CCN(c4ccc(C(=O)N(CC)CC)cc4)CC3)c(CC)c2)c1", "note": "[B4J050-01, 4-[4-[[4-(5-Ethoxypyridin-3-yl)-2-ethylphenyl]methyl]piperazin-1-yl]-N,N-diethylbenzamide]", "values": [{"measurement": "ASMS ratio (%) n = 1", "setting": "[2]", "result": 2.1, "unit": "%"}, {"measurement": "ASMS ratio (%) n = 2", "setting": "[2]", "result": 0.6, "unit": "%"}]}, {"compound": "CCOc1cccc(-c2ccc(CN3CCN(c4ccc(C(=O)NS(=O)(=O)c5ccc(NCCSc6ccccc6)c([N+](=O)[O-])c5)nn4)CC3)cc2C)c1", "note": "[B2Q073-01]", "values": [{"measurement": "ASMS ratio (%) n = 1", "setting": "AS-MS, mixture library, Bcl-2", "result": 0.0, "unit": "%"}, {"measurement": "ASMS ratio (%) n = 2", "setting": "AS-MS, mixture library, Bcl-2", "result": 0.0, "unit": "%"}]}, {"compound": "CCOc1cccc(-c2ccc(C(=O)N3CCN(c4ccc(C(=O)NS(=O)(=O)c5ccc(NCCSc6ccccc6)c(C(F)(F)F)c5)cc4)CC3)cc2F)c1", "note": "[B2R027-01, 4-[4-[4-(3-Ethoxyphenyl)-3-fluorobenzoyl]piperazin-1-yl]-N-[4-(2-phenylsulfanylethylamino)-3-(trifluoromethyl)phenyl]sulfonylbenzamide]", "values": [{"measurement": "ASMS ratio (%)", "setting": "n = 1", "result": "−3.7", "unit": "%"}, {"measurement": "ASMS ratio (%)", "setting": "n = 2", "result": 1.2, "unit": "%"}]}, {"compound": "CCOc1cccc(-c2csc(C(=O)N3CCN(c4ccc(C(=O)NS(C)(=O)=O)cc4)CC3)c2)c1", "note": "[B2I023-01, 4-[4-[4-(3-Ethoxyphenyl)thiophene-2-carbonyl]piperazin-1-yl]-N-methylsulfonylbenzamide]", "values": [{"measurement": "ASMS ratio (%) n = 1", "setting": "AS-MS, mixture library, Bcl-2", "result": 0.0, "unit": "%"}, {"measurement": "ASMS ratio (%) n = 2", "setting": "AS-MS, mixture library, Bcl-2", "result": 0.0, "unit": "%"}]}, {"compound": "CCOc1cncc(-c2ccc(C(=O)N3CCN(c4ccc(C(=O)N(CC)CC)nn4)CC3)cc2C)c1", "note": "[B4J004-01, 6-[4-[4-(5-Ethoxypyridin-3-yl)-3-methylbenzoyl]piperazin-1-yl]-N,N-diethylpyridazine-3-carboxamide]", "values": [{"measurement": "ASMS ratio (%) n = 1", "setting": "[2]", "result": "−2.2", "unit": "%"}, {"measurement": "ASMS ratio (%) n = 2", "setting": "[2]", "result": 0.4, "unit": "%"}]}]}
